Source: BindingDB's records for doi:10.1016/j.bmcl.2004.07.091 (Keio University, 2004)

Target: T1, Beta-galactosidase (Bos taurus, UniProt Q58D55)
T1 sequence (Q58D55 whole entry): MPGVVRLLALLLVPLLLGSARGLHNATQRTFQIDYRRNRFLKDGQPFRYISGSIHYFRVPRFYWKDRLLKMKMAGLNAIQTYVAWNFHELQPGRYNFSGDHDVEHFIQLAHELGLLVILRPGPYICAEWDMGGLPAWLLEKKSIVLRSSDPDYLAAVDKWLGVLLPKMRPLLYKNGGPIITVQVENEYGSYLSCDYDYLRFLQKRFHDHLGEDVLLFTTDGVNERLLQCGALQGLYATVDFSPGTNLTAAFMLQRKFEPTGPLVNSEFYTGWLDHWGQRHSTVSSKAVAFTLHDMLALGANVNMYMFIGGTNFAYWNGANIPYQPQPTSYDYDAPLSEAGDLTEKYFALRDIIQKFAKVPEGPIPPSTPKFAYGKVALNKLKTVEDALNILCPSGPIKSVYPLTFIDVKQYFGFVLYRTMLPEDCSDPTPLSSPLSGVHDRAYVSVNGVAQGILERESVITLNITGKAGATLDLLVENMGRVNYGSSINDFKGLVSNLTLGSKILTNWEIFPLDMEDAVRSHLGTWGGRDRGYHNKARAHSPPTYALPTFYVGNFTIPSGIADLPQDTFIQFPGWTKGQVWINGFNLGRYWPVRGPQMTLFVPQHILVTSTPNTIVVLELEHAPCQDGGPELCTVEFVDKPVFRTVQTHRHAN
Assay: Inhibition of Beta-galactosidase of bovine liver; no inhibition

SMILES	IC50
N[C@H]1C[C@H](CO)[C@@H](O)[C@H](O)[C@H]1O	> 1 mM
CO[C@@H]1CC2COC(C1O)[C@H]2NC1CC(CO)C(O)C(O)C1O (stereo partly drawn) [4-((3R,8S)-4-Hydroxy-3-methoxy-6-oxa-bicyclo[3.2.1]oct-8-ylamino)-6-hydroxymethyl-cyclohexane-1,2,3-triol]	> 1 mM
CC(=O)NC1CC(CO)C(O)C(O)C1O (stereo unspecified) [N-(2,3,4-Trihydroxy-5-hydroxymethyl-cyclohexyl)-acetamide]	> 1 mM

Target: beta-glucosidase (Rattus norvegicus)
Assay: Inhibition of Beta-glucosidase of rat intestine; no inhibition

SMILES	IC50
CO[C@@H]1CC2COC(C1O)[C@H]2NC1CC(CO)C(O)C(O)C1O (stereo partly drawn) [4-((3R,8S)-4-Hydroxy-3-methoxy-6-oxa-bicyclo[3.2.1]oct-8-ylamino)-6-hydroxymethyl-cyclohexane-1,2,3-triol]	> 1 mM
CCCCCCCCNC1CC(CO)C(O)C(O)C1O (stereo unspecified) [4-Hydroxymethyl-6-octylamino-cyclohexane-1,2,3-triol]	> 1 mM
C=C1CC(NCCCCCCCC)C(O)C(O)C1O (stereo unspecified) [4-Methylene-6-octylamino-cyclohexane-1,2,3-triol]	> 1 mM
